Key:
5-HT2A receptor = molecular target: T1, 5-HT2A receptor (Homo sapiens, UniProt P28223); experiment: Radioligand binding assay, serotoninergic 5-HT2A receptors; conditions: for inhibition at 1 µM / 5-HT2A [%]: binding assay result in %, Table 5a; for Ki: read-out: Inhibition constants Ki, 5-HT2A
T1 construct: purchased PerkinElmer
In short: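 Radioligand competition binding with scintillation counting; nonspecific binding defined by excess unlabelled ligand. Data as percent inhibition of control specific binding. IC50 by Hill-equation fit of competition curves; Ki by Cheng-Prusoff, with radioligand Kd from Scatchard plot.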

[1] = molecular target: T2, serotonin transporter (SERT) (Homo sapiens, UniProt P31645); experiment: Radioligand binding assay, serotonin transporter (SERT); conditions: for inhibition at 1 µM / SERT [%]: binding assay, test compound 1×10^−6 M
T2 construct: expressed in transfected cells; host or cells: CHO cells
In short: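 Radioligand competition binding with scintillation detection; specific binding is total minus binding under excess unlabelled ligand. Reported as % of control specific binding or % inhibition; IC50 from Hill-equation non-linear regression of competition curves, and Ki via Cheng-Prusoff using radioligand concentration and Scatchard-derived KD.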

5-HT7 receptor = molecular target: T3, 5-HT7 receptor (Homo sapiens, UniProt P34969); experiment: Radioligand binding assay, serotoninergic 5-HT7 receptors; conditions: binding assay result in %, Table 5a
T3 construct: purchased PerkinElmer
In short: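 Competition binding at human 5-HT7 receptors with a radioligand, detected by scintillation counting; non-specific binding was defined with excess unlabelled ligand. IC50 came from Hill-equation fits of competition curves, and Ki from Cheng–Prusoff using radioligand concentration and Scatchard-derived KD.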

receptors D4.4 = molecular target: T4, receptors D4.4 (Homo sapiens, UniProt P21917); experiment: Radioligand binding assay, dopaminergic D4 (D4.4) receptors; conditions: test compound 1×10^−6 M
T4 sequence (P21917 1-419): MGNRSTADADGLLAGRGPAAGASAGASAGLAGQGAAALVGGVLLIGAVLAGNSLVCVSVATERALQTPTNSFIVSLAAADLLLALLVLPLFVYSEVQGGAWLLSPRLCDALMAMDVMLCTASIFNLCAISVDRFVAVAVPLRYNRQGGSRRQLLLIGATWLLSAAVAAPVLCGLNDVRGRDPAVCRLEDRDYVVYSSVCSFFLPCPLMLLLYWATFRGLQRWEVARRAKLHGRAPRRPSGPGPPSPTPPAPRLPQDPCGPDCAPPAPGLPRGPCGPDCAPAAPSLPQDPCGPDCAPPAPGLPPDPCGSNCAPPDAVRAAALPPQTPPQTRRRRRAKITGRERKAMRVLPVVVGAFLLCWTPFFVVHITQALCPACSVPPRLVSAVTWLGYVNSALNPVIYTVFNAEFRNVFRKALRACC
In short: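 Competition radioligand binding at human D2, D3 and D4.4 receptors, detected by scintillation counting; nonspecific binding defined with excess unlabelled ligand. Results as percent inhibition of control specific binding; IC50 by Hill-equation nonlinear regression; Ki via Cheng-Prusoff, with radioligand KD from Scatchard plot.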

α2C adrenergic receptors = molecular target: T5, α2C adrenergic receptors (Homo sapiens, UniProt P18825); experiment: Radioligand binding assay, adrenergic α2C receptors; conditions: test compound 1×10^−6 M
T5 construct: expressed in transfected cells; host or cells: CHO cells
T5 sequence (P18825 1-462): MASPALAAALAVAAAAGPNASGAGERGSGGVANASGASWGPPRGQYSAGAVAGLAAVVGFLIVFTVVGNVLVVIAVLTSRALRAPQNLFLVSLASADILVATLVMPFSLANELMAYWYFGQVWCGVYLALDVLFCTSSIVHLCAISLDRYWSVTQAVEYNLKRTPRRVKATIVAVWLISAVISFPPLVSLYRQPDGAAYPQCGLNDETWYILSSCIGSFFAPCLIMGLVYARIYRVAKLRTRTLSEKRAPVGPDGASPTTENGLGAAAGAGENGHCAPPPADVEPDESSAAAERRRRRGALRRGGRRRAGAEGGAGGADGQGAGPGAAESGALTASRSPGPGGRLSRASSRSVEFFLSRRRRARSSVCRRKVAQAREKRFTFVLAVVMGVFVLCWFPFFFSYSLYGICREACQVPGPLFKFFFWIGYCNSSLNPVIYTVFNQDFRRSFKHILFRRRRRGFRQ
In short: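 Competitive radioligand binding at human α2C receptors, with scintillation counting. Nonspecific binding defined with excess unlabelled ligand; results given as % inhibition of control specific binding. IC50 from Hill-equation fits of competition curves; Ki via Cheng-Prusoff using radioligand concentration and Scatchard-derived KD.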

[2] = molecular target: dopaminergic receptors D2 (Homo sapiens, UniProt P14416); experiment: Radioligand binding assay, dopaminergic D2 receptors; conditions: for inhibition at 1 µM / D2 [%]: binding assay, test compound 1×10^−6 M; for Ki: read-out: Inhibition constants Ki for D2 receptors, D2
In short: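 Competition binding with scintillation counting of bound radioligand; specific binding taken as total minus non-specific binding measured with excess unlabelled ligand. IC50 obtained by Hill-equation non-linear regression of replicate-mean curves, then converted to Ki via Cheng–Prusoff using radioligand concentration and Scatchard-derived KD.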

[3] = molecular target: T6, H1 histaminergic receptors (Homo sapiens, UniProt P35367); experiment: Radioligand binding assay, histaminergic H1 receptors; conditions: human recombinant (HEK-293 cells), [3H]pyrilamine 1 nM
T6 construct: expressed in transfected cells; host or cells: HEK-293 cells
In short: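 Competition binding at human H1 receptors; specific binding taken as total minus non-specific binding in excess unlabelled ligand, scintillation read-out. IC50 from Hill-equation fit of competition curves; Ki by Cheng-Prusoff using radioligand concentration and Kd (from Scatchard plot).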

σ receptors = experiment: Radioligand binding assay, σ receptors; conditions: rat cerebral cortex, [3H]DTG 8 nM
Excerpt: The specific ligand binding to the receptors is defined as the difference between the total binding and the non-specific binding determined in the presence of the excess of unlabelled ligand.
The results are expressed as a percent of control specific binding ((measured specific binding/control specific binding)×100) and as a percent inhibition of control specific binding (100−((measured specific binding/control specific binding)×100)) obtained in the presence of the test compounds. The specific ligand binding to the receptors is defined as the difference between the total binding and the nonspecific binding determined in the presence of an excess of unlabelled ligand. Scintillation counting was the method of detection of ligand binding. The IC50 values (concentration causing a half-maximal inhibition of control specific binding) were determined by non-linear regression analysis of the competition curves generated with mean replicate values using Hill equation curve fitting (Y=D+[(A−D)/(1+(C/C50)nH)], where Y=specific binding, D=minimum specific binding, A=maximum specific binding, C=compound concentration, C50=IC50, and nH=slope factor). […] The inhibition constants (Ki) were calculated using the Cheng Prusoff equation (Ki=IC50/(1+(L/KD)), where L=concentration of radioligand in the assay, and KD=affinity of the radioligand for the receptor). A scatchard plot was used to determine the Kd.

T1 sequence (P28223 whole entry): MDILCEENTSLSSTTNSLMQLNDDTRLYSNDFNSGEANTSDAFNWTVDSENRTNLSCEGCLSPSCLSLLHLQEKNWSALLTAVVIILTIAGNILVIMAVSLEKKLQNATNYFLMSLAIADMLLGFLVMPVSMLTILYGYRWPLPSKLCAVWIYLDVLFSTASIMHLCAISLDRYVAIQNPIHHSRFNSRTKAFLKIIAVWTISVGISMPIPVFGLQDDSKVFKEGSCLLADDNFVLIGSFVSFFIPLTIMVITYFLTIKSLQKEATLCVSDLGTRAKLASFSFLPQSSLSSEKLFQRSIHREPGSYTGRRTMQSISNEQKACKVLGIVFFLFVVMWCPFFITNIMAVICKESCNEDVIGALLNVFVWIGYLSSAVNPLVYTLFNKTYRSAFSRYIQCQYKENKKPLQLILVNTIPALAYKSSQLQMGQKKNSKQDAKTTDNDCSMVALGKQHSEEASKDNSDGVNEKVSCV
Chain of dopaminergic receptors D2 (P14416 whole entry): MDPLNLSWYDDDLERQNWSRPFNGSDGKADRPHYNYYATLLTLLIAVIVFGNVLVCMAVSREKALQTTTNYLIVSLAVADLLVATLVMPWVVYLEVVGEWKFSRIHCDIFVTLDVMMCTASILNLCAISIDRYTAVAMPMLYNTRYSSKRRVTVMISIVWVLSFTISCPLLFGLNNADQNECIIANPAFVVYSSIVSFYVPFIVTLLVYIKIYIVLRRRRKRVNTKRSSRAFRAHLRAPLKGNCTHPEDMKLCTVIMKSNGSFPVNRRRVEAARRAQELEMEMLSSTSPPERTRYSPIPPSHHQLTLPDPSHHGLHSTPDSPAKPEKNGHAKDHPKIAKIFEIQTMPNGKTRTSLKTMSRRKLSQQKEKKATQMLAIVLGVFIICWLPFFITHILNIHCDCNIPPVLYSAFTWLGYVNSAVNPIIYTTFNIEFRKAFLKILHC
T3 sequence (P34969 whole entry): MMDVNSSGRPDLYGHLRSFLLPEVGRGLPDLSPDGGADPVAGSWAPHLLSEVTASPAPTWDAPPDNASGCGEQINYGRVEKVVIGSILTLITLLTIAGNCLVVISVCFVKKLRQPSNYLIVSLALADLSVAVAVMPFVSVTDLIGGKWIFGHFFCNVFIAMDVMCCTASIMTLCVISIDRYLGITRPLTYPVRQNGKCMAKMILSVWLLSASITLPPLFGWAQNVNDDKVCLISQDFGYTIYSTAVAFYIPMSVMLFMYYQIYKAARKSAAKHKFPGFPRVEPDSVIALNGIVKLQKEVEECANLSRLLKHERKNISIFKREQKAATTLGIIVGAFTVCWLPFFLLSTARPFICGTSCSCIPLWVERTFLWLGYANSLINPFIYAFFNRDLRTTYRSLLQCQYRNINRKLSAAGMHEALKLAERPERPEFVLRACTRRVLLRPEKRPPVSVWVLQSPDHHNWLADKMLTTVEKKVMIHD
T6 sequence (P35367 whole entry): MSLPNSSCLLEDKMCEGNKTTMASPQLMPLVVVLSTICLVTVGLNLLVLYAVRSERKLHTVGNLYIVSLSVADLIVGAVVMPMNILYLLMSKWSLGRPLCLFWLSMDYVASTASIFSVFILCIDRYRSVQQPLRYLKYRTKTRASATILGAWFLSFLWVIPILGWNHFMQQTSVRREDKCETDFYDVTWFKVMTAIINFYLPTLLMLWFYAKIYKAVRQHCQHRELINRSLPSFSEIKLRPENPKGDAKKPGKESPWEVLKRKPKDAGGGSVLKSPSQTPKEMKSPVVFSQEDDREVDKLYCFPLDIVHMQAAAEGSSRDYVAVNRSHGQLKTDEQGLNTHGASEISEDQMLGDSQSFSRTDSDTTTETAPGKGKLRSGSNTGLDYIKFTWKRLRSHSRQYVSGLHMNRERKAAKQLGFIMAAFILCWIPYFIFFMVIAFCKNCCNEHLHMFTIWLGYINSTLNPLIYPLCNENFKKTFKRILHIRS
T2 sequence (P31645 whole entry): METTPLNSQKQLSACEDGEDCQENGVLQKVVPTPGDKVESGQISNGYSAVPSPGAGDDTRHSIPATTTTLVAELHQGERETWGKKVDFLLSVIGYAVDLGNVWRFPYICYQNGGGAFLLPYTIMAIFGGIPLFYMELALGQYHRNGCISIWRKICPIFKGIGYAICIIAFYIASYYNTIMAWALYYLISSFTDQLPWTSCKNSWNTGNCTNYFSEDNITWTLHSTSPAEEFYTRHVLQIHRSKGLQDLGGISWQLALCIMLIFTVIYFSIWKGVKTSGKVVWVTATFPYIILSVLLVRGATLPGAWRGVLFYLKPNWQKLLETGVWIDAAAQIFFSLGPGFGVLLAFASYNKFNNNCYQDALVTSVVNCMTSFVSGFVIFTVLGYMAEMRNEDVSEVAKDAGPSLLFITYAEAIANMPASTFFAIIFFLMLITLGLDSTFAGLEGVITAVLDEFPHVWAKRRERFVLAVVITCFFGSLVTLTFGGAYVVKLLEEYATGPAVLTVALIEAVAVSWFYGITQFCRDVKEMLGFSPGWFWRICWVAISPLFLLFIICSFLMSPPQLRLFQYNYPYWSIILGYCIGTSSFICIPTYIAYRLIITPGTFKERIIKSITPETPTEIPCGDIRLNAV

| Molecule | inhibition at 1 µM (5-HT2A receptor) | inhibition at 1 µM [1] | Ki ([1]; read-out: Inhibition constants Ki for SERT, SERT) | inhibition at 1 µM (5-HT7 receptor) | inhibition at 1 µM (receptors D4.4) | inhibition at 1 µM (α2C adrenergic receptors) | inhibition at 1 µM [2] | inhibition at 1 µM [3] | σ [%] (σ receptors) | 5-HT2A [%] (5-HT2A receptor) | SERT [%] [1] | 5-HT7 [%] (5-HT7 receptor) | D4.4 [%] (receptors D4.4) | α2C [%] (α2C adrenergic receptors) | D2 [%] [2] | H1 [%] [3] | Ki (5-HT2A receptor) | Ki [2] |
| --- | --- | --- | --- | --- | --- | --- | --- | --- | --- | --- | --- | --- | --- | --- | --- | --- | --- | --- |
| O=S(=O)(NC1CCN(CCCc2c[nH]c3ccc(Cl)cc23)C1)c1cccc(F)c1 (stereo not shown) [Compound 82, N-[1-[3-(5-Chloro-1H-indol-3-yl)propyl]pyrrolidin-3-yl]-3-fluoro-benzene-sulphonamide] | 91% | 100% | 1.3 nM | 96% | 94% | 101% | 90% | 61% | 63% |  |  |  |  |  |  |  |  |  |
| O=S(=O)(NC1CCN(CCCc2noc3cc(F)ccc23)CC1)c1cccc2ccccc12 [Compound 34, N-[1-[3-(6-Fluoro-1,2-benzoxazol-3-yl)propyl]-4-piperidine]-naphthalene-1-sulphonamide] | 98% | 43% |  | 100% | 37% | 94% | 76% | 56% | 50% |  |  |  |  |  |  |  |  |  |
| N-[[1-[2-[(2,2-Dimethyl-3H-benzofuran-7-yl)oxy]ethyl]azetidin-3-yl]methyl]-3-hydroxy-benzenesulphonamide [Compound 111] |  |  |  |  |  |  |  |  | 81% | 92% | 15% | 100% | 61% | 90% | 97% | 38% |  |  |
| Cc1cccc(S(=O)(=O)NC2CN(CCOc3cccc4c3OCCO4)C2)c1 [Compound 93, N-[1-[2-(2,3-Dihydro-1,4-benzodioxan-8-yloxy)ethyl]azetidin-3-yl]-3-methyl-benzenesulphonamide] |  |  |  |  |  |  |  |  | 35% | 72% | 23% | 99% | 39% | 84% | 78% | 34% |  |  |
| Cc1c(S(=O)(=O)N[C@H]2CCN(CCCc3noc4cc(F)ccc34)C2)sc2ccc(Cl)cc12 [Compound 205, 5-Chloro-N-[(3S)-1-[3-(6-fluoro-1,2-benzoxazol-3-yl)propyl]pyrrolidin-3-yl]-3-methyl-benzothiophene-2-sulphonamide] |  | 45% |  | 98% | 73% | 86% | 99% | 50% | 92% |  |  |  |  |  |  |  | 1.6 nM | 1.6 nM |
| O=S(=O)(N[C@@H]1CCN(CCCc2noc3cc(F)ccc23)C1)c1cc2ccccc2o1 [Compound 214, N-[(3R)-1-[3-(6-Fluoro-1,2-benzoxazol-3-yl)propyl]pyrrolidin-3-yl]benzo-furan-2-sulphonamide] |  | 15% |  | 98% | 61% | 74% | 97% | 52% | 84% |  |  |  |  |  |  |  | 2.1 nM | 2.8 nM |
| O=S(=O)(NC1CCN(CCCc2noc3cc(F)ccc23)C1)c1cccc2ccccc12 (stereo not shown) [Compound 20, N-[1-[3-(6-Fluoro-1,2-benzoxazol-3-yl)propyl]pyrrolidin-3-yl]naphthalene-1-sulphonamide] | 100% | 6% |  | 98% | 100% | 78% | 95% | 36% | 83% |  |  |  |  |  |  |  |  |  |
| O=S(=O)(NCC1CCN(CCCc2noc3cc(F)ccc23)C1)c1ccc(-c2ccccc2)cc1 (stereo not shown) [Compound 241, N-[[1-[3-(6-Fluoro-1,2-benzoxazol-3-yl)propyl]pyrrolidin-3-yl]methyl]-4-phenyl-benzenesulphonamide] | 97% | 71% |  | 100% | 33% | 87% | 81% | 69% | 88% |  |  |  |  |  |  |  |  |  |
| CC1(C)Cc2cccc(OCCN3CCC(NS(=O)(=O)c4cccc(O)c4)CC3)c2O1 [Compound 109, N-[1-[2-[(2,2-Dimethyl-3H-benzofuran-7-yl)oxy]ethyl]-4-piperidine]-3-hydroxy-benzenesulphonamide] |  |  |  |  |  |  |  |  | 39% | 95% | −10% | 99% | 69% | 98% | 92% | 65% |  |  |
| O=S(=O)(NCC1CN(CCOc2cccc3c2OCCO3)C1)c1ccc(Cl)c(Cl)c1 [Compound 183, 3,4-Dichloro-N-[[1-[2-(2,3-dihydro-1,4-benzodioxin-5-yloxy)ethyl]azetidin-3-yl]methyl]benzenesulphonamide] | 94% | 48% |  | 102% | 80% | 99% | 92% | 42% | 94% |  |  |  |  |  |  |  |  |  |
| COc1ccc2cc(S(=O)(=O)N[C@@H]3CCN(CCCc4noc5cc(F)ccc45)C3)ccc2c1 [Compound 230, N-[(3R)-1-[3-(6-Fluoro-1,2-benzoxazol-3-yl)propyl]pyrrolidin-3-yl]-6-methoxy-naphthalene-2-sulphonamide] |  | 75% |  | 87% | 88% | 92% | 99% | 71% | 90% |  |  |  |  |  |  |  | 0.4 nM | 1.1 nM |
| O=S(=O)(NC1CN(CCOc2cccc3[nH]ccc23)C1)c1ccc2ccccc2c1 [Compound 50, N-[1-[2-(1H-Indol-4-yloxy)ethyl]azetidin-3-yl]naphthalene-2-sulphonamide] | 97% | 20% |  | 99% | 94% | 108% | 96% | 34% | 59% |  |  |  |  |  |  |  |  |  |

Source: patent publication US20140135310A1, “SULPHONAMIDE DERIVATIVES OF ALICYCLIC AMINES FOR THE TREATMENT OF CENTRAL NERVOUS SYSTEM DISEASES” (Adamed Sp. z o.o., priority 2011, published 2014)
